Assay: xn = mol fraction of the nth substance listed
Conditions: 100 kPa, Liquid; for mass density: Vibrating tube method; for viscosity: Capillary tube (Ostwald / Ubbelohde) method

CC1COC(=O)O1 (centres undefined) [4-methyl-1,3-dioxolan-2-one] + CN1CCCC1=O
Conditions	mass density [kg/m3]	viscosity [mPa·s]
293.15 K, x2 = 0	1204.81	–
293.15 K, x2 = 0.0523	1194.07	–
293.15 K, x2 = 0.1021	1184.1	–
293.15 K, x2 = 0.1995	1165.18	–
293.15 K, x2 = 0.2987	1146.67	–
293.15 K, x2 = 0.4003	1128.44	–
293.15 K, x2 = 0.5164	1108.38	–
293.15 K, x2 = 0.6011	1094.3	–
293.15 K, x2 = 0.6989	1078.57	–
293.15 K, x2 = 0.7989	1062.97	–
293.15 K, x2 = 0.9003	1047.58	–
293.15 K, x2 = 0.9506	1040.04	–
298.15 K, x2 = 0	1199.02	2.52
298.15 K, x2 = 0.0523	1188.38	–
298.15 K, x2 = 0.1021	1178.51	–
298.15 K, x2 = 0.114	–	2.391
298.15 K, x2 = 0.1995	1159.73	–
298.15 K, x2 = 0.2013	–	2.294
298.15 K, x2 = 0.2987	1141.4	–
298.15 K, x2 = 0.3347	–	2.158
298.15 K, x2 = 0.389	–	2.103
298.15 K, x2 = 0.4003	1123.3	–
298.15 K, x2 = 0.5	–	2.003
298.15 K, x2 = 0.5164	1103.36	–
298.15 K, x2 = 0.597	–	1.926
298.15 K, x2 = 0.6011	1089.39	–
298.15 K, x2 = 0.6989	1073.78	–
298.15 K, x2 = 0.709	–	1.845
298.15 K, x2 = 0.7891	–	1.796
298.15 K, x2 = 0.7989	1058.3	–
298.15 K, x2 = 0.8985	–	1.732
298.15 K, x2 = 0.9003	1043	–
298.15 K, x2 = 0.9506	1035.5	–
303.15 K, x2 = 0	1194	2.27
303.15 K, x2 = 0.0523	1183.42	–
303.15 K, x2 = 0.1021	1173.58	–
303.15 K, x2 = 0.114	–	2.157
303.15 K, x2 = 0.1995	1154.87	–
303.15 K, x2 = 0.2013	–	2.076
303.15 K, x2 = 0.2987	1136.58	–
303.15 K, x2 = 0.3347	–	1.957
303.15 K, x2 = 0.389	–	1.908
303.15 K, x2 = 0.4003	1118.52	–
303.15 K, x2 = 0.5	–	1.821
303.15 K, x2 = 0.5164	1098.63	–
303.15 K, x2 = 0.597	–	1.754
303.15 K, x2 = 0.6011	1084.68	–
303.15 K, x2 = 0.6989	1069.12	–
303.15 K, x2 = 0.709	–	1.685
303.15 K, x2 = 0.7891	–	1.641
303.15 K, x2 = 0.7989	1053.68	–
303.15 K, x2 = 0.8985	–	1.585
303.15 K, x2 = 0.9003	1038.41	–
303.15 K, x2 = 0.9506	1030.92	–
308.15 K, x2 = 0	1188.57	2.08
308.15 K, x2 = 0.0523	1178.1	–
308.15 K, x2 = 0.1021	1168.35	–
308.15 K, x2 = 0.114	–	1.988
308.15 K, x2 = 0.1995	1149.78	–
308.15 K, x2 = 0.2013	–	1.916
308.15 K, x2 = 0.2987	1131.63	–
308.15 K, x2 = 0.3347	–	1.81
308.15 K, x2 = 0.389	–	1.767
308.15 K, x2 = 0.4003	1113.71	–
308.15 K, x2 = 0.5	–	1.688
308.15 K, x2 = 0.5164	1093.99	–
308.15 K, x2 = 0.597	–	1.628
308.15 K, x2 = 0.6011	1080.16	–
308.15 K, x2 = 0.6989	1064.71	–
308.15 K, x2 = 0.709	–	1.568
308.15 K, x2 = 0.7891	–	1.527
308.15 K, x2 = 0.7989	1049.38	–
308.15 K, x2 = 0.8985	–	1.475
308.15 K, x2 = 0.9003	1034.2	–
308.15 K, x2 = 0.9506	1026.76	–
313.15 K, x2 = 0	1183.11	1.91
313.15 K, x2 = 0.0523	1172.69	–
313.15 K, x2 = 0.1021	1162.99	–
313.15 K, x2 = 0.114	–	1.828
313.15 K, x2 = 0.1995	1144.5	–
313.15 K, x2 = 0.2013	–	1.765
313.15 K, x2 = 0.2987	1126.42	–
313.15 K, x2 = 0.3347	–	1.673
313.15 K, x2 = 0.389	–	1.636
313.15 K, x2 = 0.4003	1108.58	–
313.15 K, x2 = 0.5	–	1.568
313.15 K, x2 = 0.5164	1088.95	–
313.15 K, x2 = 0.597	–	1.516
313.15 K, x2 = 0.6011	1075.18	–
313.15 K, x2 = 0.6989	1059.78	–
313.15 K, x2 = 0.709	–	1.461
313.15 K, x2 = 0.7891	–	1.426
313.15 K, x2 = 0.7989	1044.52	–
313.15 K, x2 = 0.8985	–	1.379
313.15 K, x2 = 0.9003	1029.43	–
313.15 K, x2 = 0.9506	1022.03	–
318.15 K, x2 = 0	1177.55	1.75
318.15 K, x2 = 0.0523	1167.21	–
318.15 K, x2 = 0.1021	1157.58	–
318.15 K, x2 = 0.114	–	1.682
318.15 K, x2 = 0.1995	1139.21	–
318.15 K, x2 = 0.2013	–	1.627
318.15 K, x2 = 0.2987	1121.25	–
318.15 K, x2 = 0.3347	–	1.545
318.15 K, x2 = 0.389	–	1.513
318.15 K, x2 = 0.4003	1103.52	–
318.15 K, x2 = 0.5	–	1.453
318.15 K, x2 = 0.5164	1084	–
318.15 K, x2 = 0.597	–	1.407
318.15 K, x2 = 0.6011	1070.31	–
318.15 K, x2 = 0.6989	1054.99	–
318.15 K, x2 = 0.709	–	1.359
318.15 K, x2 = 0.7891	–	1.328
318.15 K, x2 = 0.7989	1039.81	–
318.15 K, x2 = 0.8985	–	1.286
318.15 K, x2 = 0.9003	1024.81	–
318.15 K, x2 = 0.9506	1017.45	–
323.15 K, x2 = 0	1171.96	1.62
323.15 K, x2 = 0.0523	1161.72	–
323.15 K, x2 = 0.1021	1152.17	–
323.15 K, x2 = 0.114	–	1.56
323.15 K, x2 = 0.1995	1133.96	–
323.15 K, x2 = 0.2013	–	1.513
323.15 K, x2 = 0.2987	1116.14	–
323.15 K, x2 = 0.3347	–	1.443
323.15 K, x2 = 0.389	–	1.414
323.15 K, x2 = 0.4003	1098.55	–
323.15 K, x2 = 0.5	–	1.361
323.15 K, x2 = 0.5164	1079.17	–
323.15 K, x2 = 0.597	–	1.32
323.15 K, x2 = 0.6011	1065.56	–
323.15 K, x2 = 0.6989	1050.38	–
323.15 K, x2 = 0.709	–	1.278
323.15 K, x2 = 0.7891	–	1.25
323.15 K, x2 = 0.7989	1035.3	–
323.15 K, x2 = 0.8985	–	1.213
323.15 K, x2 = 0.9003	1020.41	–
323.15 K, x2 = 0.9506	1013.09	–

Source: the NIST ThermoML archive (doi:10.1016/j.jct.2015.08.013)
